From patent US20090221642A1, “MUSCARINIC RECEPTOR AGONISTS, COMPOSITIONS, METHODS OF TREATMENT THEREOF, AND PROCESSES FOR PREPARATION THEREOF-176” (AstraZeneca AB, priority 2008, published 2009)

Key:
[1] = biological target: T1, cloned human M4 receptor (human Muscarinic receptor subtype 4) (Homo sapiens, UniProt P08173); assay: hM4 receptor GTPγS binding; format: biochemical; details: CHO cell membranes expressing hM4; [35S]GTPγS binding; read-out: hM4 EC50
T1 construct: purchased Perkin-Elmer RBHM4M; host or cells: Chinese hamster ovary cells (CHO) membranes
T1 sequence (P08173 1-479): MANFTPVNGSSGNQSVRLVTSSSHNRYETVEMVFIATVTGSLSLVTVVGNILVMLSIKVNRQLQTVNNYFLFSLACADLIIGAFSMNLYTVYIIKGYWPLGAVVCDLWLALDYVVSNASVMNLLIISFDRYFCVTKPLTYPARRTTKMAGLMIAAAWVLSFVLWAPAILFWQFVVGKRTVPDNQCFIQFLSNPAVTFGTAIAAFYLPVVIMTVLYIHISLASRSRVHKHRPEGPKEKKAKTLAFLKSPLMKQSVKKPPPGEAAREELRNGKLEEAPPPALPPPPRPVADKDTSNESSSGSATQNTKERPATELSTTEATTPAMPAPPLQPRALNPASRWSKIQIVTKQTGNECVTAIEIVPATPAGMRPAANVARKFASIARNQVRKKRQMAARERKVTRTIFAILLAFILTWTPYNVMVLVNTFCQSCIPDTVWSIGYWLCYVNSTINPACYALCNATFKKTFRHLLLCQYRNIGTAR
Description: hM4 Receptor GTPγS Binding
Membranes produced from Chinese hamster ovary cells (CHO) expressing the cloned human M4 receptor (human Muscarinic receptor subtype 4, gene bank access NM_000741), are obtained from Perkin-Elmer (RBHM4M). The membranes are thawed at 37° C., passed 3 times through a 23-gauge blunt-end needle, diluted in the GTPγS binding buffer (50 mM Hepes, 20 mM NaOH, 100 mM NaCl, 1 mM EDTA, 5 mM MgCl2, pH 7.4, 100 μM DTT). The EC50, IC50 and Emax of the compounds of the invention are evaluated from 10-point dose-response curves (three fold concentration range) done in 60 μl in 384-well non-specific binding surface plate (Corning). Ten microliters from the dose-response curves plate (5× concentration) are transferred to another 384 well plate containing 25 μl of the following: 10 μg of hM4 membranes, 500 μg of Flashblue beads (Perkin-Elmer) and GDP 40 μM. An additional 15 μl containing 3.3× (60,000 dpm) of GTPγ^35S (0.4 nM final) are added to the wells resulting in a total well volume of 50 μl. Basal and maximal stimulated [^35S]GTPγS binding are determined in absence and presence of 30 μM final of acetylcholine agonist. The membranes/beads mix are pre-incubated for 15 minutes at room temperature with 40 μM GDP prior to distribution in plates (20 μM final). The reversal of acetylcholine-induced stimulation (10 μM final) of [^35S]GTPγS binding is used to assay the antagonist properties (IC50) of the compounds. The plates are incubated for 60 minutes at room temperature then centrifuged at 400 rpm for 5 minutes. The radioactivity (cpm) is counted in a Trilux (Perkin-Elmer).
Values of EC50, IC50 and Emax are obtained using sigmoidal fits of a non-linear curve-fitting program (XLfit version 4.2.2 Excel add-in version 4.2.2 build 18 math 1Q version 2.1.2 build 18) of percent stimulated [^35S]GTPγS binding vs. log(molar ligand). All pEC50 and plC50 values are reported as arithmetic means ±standard error of mean of ‘n’ independent experiments.

[2] = biological target: T2, hM1 (human Muscarinic receptor subtype 1) (Homo sapiens, UniProt P11229); assay: Human M1 calcium mobilization FLIPR assay; format: cell-based; details: hM1 expressed in CHO cells, intracellular Ca2+ release, read-out: hM1 EC50
T2 construct: expressed in transfected cells; host or cells: CHO cells (Chinese hamster ovary cells, ATCC)
T2 sequence (P11229 1-460): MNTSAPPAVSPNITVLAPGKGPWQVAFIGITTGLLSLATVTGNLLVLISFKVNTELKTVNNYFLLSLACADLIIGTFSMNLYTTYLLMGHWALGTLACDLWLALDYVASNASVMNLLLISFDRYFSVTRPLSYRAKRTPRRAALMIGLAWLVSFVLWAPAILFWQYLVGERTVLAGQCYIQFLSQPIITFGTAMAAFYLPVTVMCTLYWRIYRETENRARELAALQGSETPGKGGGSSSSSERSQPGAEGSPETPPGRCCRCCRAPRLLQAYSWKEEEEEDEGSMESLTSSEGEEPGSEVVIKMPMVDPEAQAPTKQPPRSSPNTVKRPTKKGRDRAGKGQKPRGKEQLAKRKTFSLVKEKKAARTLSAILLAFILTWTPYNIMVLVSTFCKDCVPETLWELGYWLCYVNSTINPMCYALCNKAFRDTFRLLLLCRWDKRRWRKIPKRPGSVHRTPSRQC
Description: Human M1, rat M1, human M3 and human M5 Calcium Mobilization FLIPR™ Assay
The compound activity in the present invention (EC50 or IC50) is measured using a 384 plate-based imaging assay that monitors drug induced intracellular Ca^2+ release in whole cells. Activation of hM1 (human Muscarinic receptor subtype 1, gene bank access NM_000738), rM1 (rat Muscarinic receptor subtype 1, gene bank access NM_080773), hM3 (human Muscarinic receptor subtype 3, gene bank access NM_000740NM_000740) and hM5 (human Muscarinic receptor subtype 5, gene bank access NM_0121258), receptors expressed in CHO cells (Chinese hamster ovary cells, ATCC) is quantified in a Molecular Devices FLIPR II™ instrument as an increase in fluorescent signal. Inhibition of hM3 and hM5 by compounds is determined by the decrease in fluorescent signal in response to 2 nM acetylcholine activation.
Prior to experiment, the cell culture medium is removed from the plates by inversion. […] Plates are incubated at 37° C. for 60 minutes prior to start the experiment. The incubation is terminated by washing the cells four times in assay buffer, leaving a residual 25 μl buffer per well. Cell plates are then transferred to the FLIPR, ready for compound additions.
The day of experiment, acetylcholine and compounds are diluted in assay buffer in three-fold concentration range (10 points serial dilution) for addition by FLIPR instrument. For all calcium assays, a baseline reading is taken for 10 seconds followed by the addition of 12.5 μl of compounds, resulting in a total well volume of 37.5 μl. Data is collected every second for 60 pictures and then every 6 seconds for 20 pictures prior to the addition of agonist. For hM3 and hM5, before agonist addition, a second baseline reading is taken for 10 seconds followed by the addition of 12.5 μl of agonist or buffer, producing a final volume of 50 μl. After agonist stimulation, the FLIPR continues to collect data every second for 60 pictures and then every 6 seconds for 20 pictures. The fluorescence emission is read using filter 1 (emission 510-570 nm) by the FLIPR on board CCD camera.
Calcium mobilization output data are calculated as the maximal relative fluorescence unit (RFU) minus the minimal value for both compound and agonist reading frame (except for hM1 and rM1 using only the maximal RFU). Data are analyzed using sigmoidal fits of a non-linear curve-fitting program (XLfit version 4.2.2 Excel add-in version 4.2.2 build 18 math 1Q version 2.1.2 build 18). All pEC50 and plC50 values are reported as arithmetic means ±standard error of mean of ‘n’ independent experiments.

**Q.** Which EC50 [1] does the source give for `COC(=O)N1CCC(C)(N2CCC(n3c(=O)[nH]c4ccccc43)CC2)C1` (racemic) [Example 2, methyl 3-methyl-3-(4-(2-oxo-2,3-dihydro-1H-benzo[d]imidazol-1-yl)piperidin-1-yl)pyrrolidine-1-carboxylate] here?
**A.** The EC50 was 2480 nM.

**Q.** And the EC50 [2]?
**A.** Its EC50 is 13 nM.

**Q.** Which results are given for `CC1(N2CCC(n3c(=O)[nH]c4ccccc43)CC2)CCN(C(=O)OCCF)C1` (racemic) [Example 4, 2-fluoroethyl 3-methyl-3-(4-(2-oxo-2,3-dihydro-1H-benzo[d]imidazol-1-yl)piperidin-1-yl)pyrrolidine-1-carboxylate]?
**A.** EC50 [1]: 4380 nM; EC50 [2]: 13.5 nM

**Q.** With `CCOC(=O)N1CCC(C)(N2CCC(n3c(=O)[nH]c4cc(F)ccc43)CC2)C1` (single isomer, unassigned) [Example 6, ethyl 3-(4-(5-fluoro-2-oxo-2,3-dihydro-1H-benzo[d]imidazol-1-yl)piperidin-1-yl)-3-methylpyrrolidine-1-carboxylate] as the compound, how does the EC50 [1] read?
**A.** The EC50 was 1730 nM.

**Q.** What about the EC50 [2] of the same compound?
**A.** The EC50 was < 1.4 nM.

**Q.** What does the source list for `CCOC(=O)N1CCC(C)(N2CCC(n3c(=O)[nH]c4cc(F)ccc43)CC2)C1` (single isomer, unassigned) [Example 7, ethyl 3-(4-(5-fluoro-2-oxo-2,3-dihydro-1H-benzo[d]imidazol-1-yl)piperidin-1-yl)-3-methylpyrrolidine-1-carboxylate]?
**A.** EC50 [1]: > 24400 nM; EC50 [2]: < 6.6 nM

**Q.** For `CCOC(=O)N1CCC(C)(N2CCC(n3c(=O)[nH]c4cc(C)ccc43)CC2)C1` (single isomer, unassigned) [Example 12, ethyl 3-methyl-3-(4-(5-methyl-2-oxo-2,3-dihydro-1H-benzo[d]imidazol-1-yl)piperidin-1-yl)pyrrolidine-1-carboxylate], which EC50 [1] is on record?
**A.** Its EC50 is 2000 nM.

**Q.** What about the EC50 [2] of the same compound?
**A.** Its EC50 is 10.1 nM.

**Q.** How did the EC50 [1] turn out when `Cc1ccc2c(c1)[nH]c(=O)n2C1CCN(C2(C)CCN(C(=O)OC(C)C)C2)CC1` (single isomer, unassigned) [Example 14, isopropyl 3-methyl-3-(4-(5-methyl-2-oxo-2,3-dihydro-1H-benzo[d]imidazol-1-yl)piperidin-1-yl)pyrrolidine-1-carboxylate] was run?
**A.** The EC50 was > 90000 nM.

**Q.** And the EC50 [2]?
**A.** The EC50 was 48.3 nM.

**Q.** How did the EC50 [1] turn out when `Cc1ccc2c(c1)[nH]c(=O)n2C1CCN(C2(C)CCN(C(=O)OC(C)C)C2)CC1` (single isomer, unassigned) [Example 15, isopropyl 3-methyl-3-(4-(5-methyl-2-oxo-2,3-dihydro-1H-benzo[d]imidazol-1-yl)piperidin-1-yl)pyrrolidine-1-carboxylate] was run?
**A.** Its EC50 is > 90000 nM.

**Q.** What about the EC50 [2] of the same compound?
**A.** The EC50 was 94.9 nM.

**Q.** `CC#CCOC(=O)N1CCC(C)(N2CCC(n3c(=O)[nH]c4ccc(C)cc43)CC2)C1` (single isomer, unassigned) [Example 20, but-2-ynyl 3-methyl-3-(4-(6-methyl-2-oxo-2,3-dihydro-1H-benzo[d]imidazol-1-yl)piperidin-1-yl)pyrrolidine-1-carboxylate] was tested. Which EC50 [1] did it give?
**A.** The EC50 was 97 nM.

**Q.** And the EC50 [2]?
**A.** Its EC50 is 14.2 nM.

**Q.** `CC#CCOC(=O)N1CCC(C)(N2CCC(n3c(=O)[nH]c4cc(C)ccc43)CC2)C1` (single isomer, unassigned) [Example 21, but-2-ynyl 3-methyl-3-(4-(5-methyl-2-oxo-2,3-dihydro-1H-benzo[d]imidazol-1-yl)piperidin-1-yl)pyrrolidine-1-carboxylate] was tested. Which EC50 [1] did it give?
**A.** Its EC50 is 262 nM.

**Q.** What about the EC50 [2] of the same compound?
**A.** Its EC50 is 12.5 nM.

**Q.** With `CC#CCOC(=O)N1CCC(C)(N2CCC(n3c(=O)[nH]c4cc(F)ccc43)CC2)C1` (single isomer, unassigned) [Example 22, but-2-ynyl 3-(4-(5-fluoro-2-oxo-2,3-dihydro-1H-benzo[d]imidazol-1-yl)piperidin-1-yl)-3-methylpyrrolidine-1-carboxylate] as the compound, how does the EC50 [1] read?
**A.** The EC50 was 421 nM.

**Q.** What about the EC50 [2] of the same compound?
**A.** The EC50 was 2.8 nM.

**Q.** Which EC50 [1] does the source give for `COC(=O)N1CCC(C)(N2CCC(n3c(=O)[nH]c4cc(F)ccc43)CC2)C1` (single isomer, unassigned) [Example 23, methyl 3-(4-(5-fluoro-2-oxo-2,3-dihydro-1H-benzo[d]imidazol-1-yl)piperidin-1-yl)-3-methylpyrrolidine-1-carboxylate] here?
**A.** Its EC50 is 3870 nM.

**Q.** And the EC50 [2]?
**A.** The EC50 was 9.4 nM.

**Q.** Which results are given for `CC1(N2CCC(n3c(=O)[nH]c4cc(F)ccc43)CC2)CCN(C(=O)OCCF)C1` (single isomer, unassigned) [Example 24, 2-fluoroethyl 3-(4-(5-fluoro-2-oxo-2,3-dihydro-1H-benzo[d]imidazol-1-yl)piperidin-1-yl)-3-methylpyrrolidine-1-carboxylate]?
**A.** EC50 [1]: 5090 nM; EC50 [2]: 10.4 nM

**Q.** How did the EC50 [1] turn out when `C#CCOC(=O)N1CCC(C)(N2CCC(n3c(=O)[nH]c4cc(F)ccc43)CC2)C1` (single isomer, unassigned) [Example 25, prop-2-ynyl 3-(4-(5-fluoro-2-oxo-2,3-dihydro-1H-benzo[d]imidazol-1-yl)piperidin-1-yl)-3-methylpyrrolidine-1-carboxylate] was run?
**A.** Its EC50 is 684 nM.

**Q.** What about the EC50 [2] of the same compound?
**A.** The EC50 was 1.8 nM.

**Q.** With `Cc1ccc2[nH]c(=O)n(C3CCN(C4(C)CCN(C(=O)OCCF)C4)CC3)c2c1` (single isomer, unassigned) [Example 26, 2-fluoroethyl 3-methyl-3-(4-(6-methyl-2-oxo-2,3-dihydro-1H-benzo[d]imidazol-1-yl)piperidin-1-yl)pyrrolidine-1-carboxylate] as the compound, how does the EC50 [1] read?
**A.** Its EC50 is 857 nM.

**Q.** What about the EC50 [2] of the same compound?
**A.** The EC50 was 7.8 nM.
